Read-outs that look alike come from different tables or passages of the source.
Key:
[1] = cited from earlier work
Mycobacterium smegmatis = test: Storage stability of bleomycin sulfate solutions, potency by microbial agar diffusion assay; assay type: physicochemical; set-up: first-order degradation rate constant k: unit not given here; settings: for % of Initial Drug Remaining (Potency): 3 U/mL in SWFI, RT
Method: As used herein, "stable" or "stabilizing" refers to the retention of potency of a bleomycin solution in the range of about 90-120% of its initial starting potency. Potency refers to the amount of antimicrobial activity of the bleomycin solution as determined by microbial assay and is expressed in units of activity. One unit of bleomycin is equivalent in activity to 1 mg of bleomycin A2 reference standard. A2 reference standards are well known to those of ordinary skill in the art and may be purchased from a variety of commercial suppliers. […] The assay is performed as follows:
ii. Plates for potency assay: The number of plates required per assay is dependent on the number of samples to be tested. For all tests, at least 12 plates are required to establish a standard response line (see "Standard Response Line Solutions" below) and at least 3 plates are required to determine the potency of each test sample. Plates for potency testing are prepared by evenly distributing a 10 mL base layer of melted Medium 35 to an appropriate number of plastic or glass Petri dishes (20 by 100 millimeters). The layer of base agar medium is poured into each plate on a flat level surface, and a cover placed on each plate in turn; if a nonporous cover is used, the cover is left slightly ajar to prevent accumulation of condensing moisture from the hot agar base layer. After the agar hardens, the nonporous cover is seated on each plate. To prepare the seed layer, an amount of test organism suspension (see "Test Organism Suspension" below) is added to a sufficient amount of Medium 35 (which has been melted and cooled to 48° C.-50° C.) to equal a ratio of 1 mL suspension for each 100 mL of medium. The flask is swirled to obtain a homogeneous suspension, and 6 mL of suspension then added to each of the plates containing the uninoculated base agar. The seed layer is spread evenly over the agar surface, covered and allowed to harden on a flat, level surface. After the agar has hardened, 6 cylinders (stainless steel with an outside diameter of 8 millimeters (±0.1 millimeter), an inside diameter of 6 millimeters (±0.1 millimeter), and a length of 10 millimeters (±0.1 millimeter)) are placed on the inoculated agar surface so that they are at approximately 60° intervals on a 2.8 centimeter radius.
c. Test Organism Suspension: Test organism, Mycobacterium smegmatis (Cat. #607 from the American Type Culture Collection, 12301 Parklawn Dr., Rockville, Md. 20852 ) is maintained on agar slants containing 10 mL of Medium 36 as described above and transferred to a fresh slant about once a week. Slants are Incubated at 37° C. for 48 hours immediately after transfer. To prepare the test organism suspension, 3 mL of sterile USP saline T.S., is used to wash the growth from the agar slant into a 500-mL Edenmeyer flask containing 100 mL of Medium 34 and 50 gm of glass beads. The culture is agitated by rotation at a speed of 130 cycles per minute and a radius of 3.5 centimeters at 37° C. for 5 days. The test organism suspension is stored under refrigeration for a period of up to 2 weeks.
ii. Working Standard Stock Solution: The working standard of bleomycin is prepared as follows: In an atmosphere of about 10 percent relative humidity, about 100 milligrams of a fine powder of the drug is transferred to a tared weighing bottle equipped with a ground-glass stopper. The bottle is weighed and placed in a vacuum oven, with the stopper tilted on its side so that there is no closure during the drying period. The drug is dried at a temperature of 25° C. and a pressure of 5 millimeters of mercury or less for 4 hours. At the end of the drying period, the vacuum oven is filled with air that has been dried by passing it through a drying agent such as sulfuric acid or silica gel. The stopper is replaced and the weighing bottle placed in a desiccator over a desiccating agent, such as phosphorous pentoxide or silica gel, allowed to cool to room temperature, and reweighed.

[2] = 0.1M citrate buffer, 5° C., 3 mo.
[3] = 0.1M citrate buffer, 25° C., 2 mo.
[4] = 0.1M citrate buffer, 25° C., 3 mo.
[5] = 0.1M citrate buffer, 40° C., 1 mo.
[6] = 0.1M citrate buffer, 40° C., 2 mo.
[7] = 0.1M citrate buffer, 40° C., 3 mo.

Substance: bleomycin
- time stable, reconstituted solutions ([1]; 2° C.-8° C.): 4 weeks
- stability in ointment base ([1]; in dermabase or tincture of benzoin): quite unstable
- loss of activity ([1]; in petrolatum ointment base, in two years): 7%
- time stable in solution ([1]; in saline (Dorr et al.)): up to seven
- claimed stability time ([1]; multidose premix in sodium chloride, under refrigeration): 100 days
- time stable, reconstituted solutions ([1]; room temperature): 2 weeks
- shelf-life t90% (time required to reach 90% of the initial potency) (Mycobacterium smegmatis; solution in SWFI at RT, estimated from k): ~3.44 months
- first-order degradation rate constant k (Mycobacterium smegmatis; solution in SWFI at RT, from 24 month data): ~0.03058

Substance: bleomycin sulfate
- % Potency Remaining (Mycobacterium smegmatis; [2]): 107.3%
- Potency (Mycobacterium smegmatis; [2]): 16.51 units per vial
- % Potency Remaining (Mycobacterium smegmatis; [3]): 104.1%
- Potency (Mycobacterium smegmatis; [3]): 16.02 units per vial
- % Potency Remaining (Mycobacterium smegmatis; [4]): 95.2%
- Potency (Mycobacterium smegmatis; [4]): 14.65 units per vial
- % Potency Remaining (Mycobacterium smegmatis; [5]): 87.1%
- Potency (Mycobacterium smegmatis; [5]): 13.40 units per vial
- % Potency Remaining (Mycobacterium smegmatis; [6]): 83.1%
- Potency (Mycobacterium smegmatis; [6]): 12.79 units per vial
- % Potency Remaining (Mycobacterium smegmatis; [7]): 59.3%
- Potency (Mycobacterium smegmatis; [7]): 9.13 units per vial
- starting concentration (initial potency) (Mycobacterium smegmatis; 0.1M citrate buffer): 15.39 units per vial
- % of Initial Drug Remaining (Potency) (Mycobacterium smegmatis; 0 months): 100.0%
- % of Initial Drug Remaining (Potency) (Mycobacterium smegmatis; 24 months): 48.0%
- % Potency Remaining (Mycobacterium smegmatis; SWFI, 5° C., 3 mo.): 105.0%
- Potency (Mycobacterium smegmatis; SWFI, 5° C., 3 mo.): 16.37 units per vial
- % Potency Remaining (Mycobacterium smegmatis; SWFI, 25° C., 2 mo.): 105.1%
- Potency (Mycobacterium smegmatis; SWFI, 25° C., 2 mo.): 16.38 units per vial
- % Potency Remaining (Mycobacterium smegmatis; SWFI, 25° C., 3 mo.): 101.5%
- Potency (Mycobacterium smegmatis; SWFI, 25° C., 3 mo.): 15.82 units per vial
- % Potency Remaining (Mycobacterium smegmatis; SWFI, 40° C., 1 mo.): 96.1%
- Potency (Mycobacterium smegmatis; SWFI, 40° C., 1 mo.): 14.97 units per vial
- % Potency Remaining (Mycobacterium smegmatis; SWFI, 40° C., 2 mo.): 97.7%
- Potency (Mycobacterium smegmatis; SWFI, 40° C., 2 mo.): 15.22 units per vial
- % Potency Remaining (Mycobacterium smegmatis; SWFI, 40° C., 3 mo.): 63.4%
- Potency (Mycobacterium smegmatis; SWFI, 40° C., 3 mo.): 9.88 units per vial
- starting concentration (initial potency) (Mycobacterium smegmatis; SWFI): 15.58 units per vial
- decrease of potency (Mycobacterium smegmatis; citrate buffer solution, 3 months storage at 40° C.): ~40%
- decrease in stability (Mycobacterium smegmatis; citrate solutions, 25° C. and 5° C., 3 months storage): little if any, decrease in stability

Reference: US5674837A, “Stable bleomycin sulfate solution suitable for injection” (Abbott Laboratories, priority 1994, dated 1997)
